Test results reported in patent publication US20020082420A1, “Bicyclic heterocycles, pharmaceutical compositions containing them, their use, and processes for preparing them” (priority 2000, published 2002).
Structures can show the parent of a compound that is named as a salt.

Row | SMILES | melting point
1 | COC(=O)CC(C(=O)OC)N1CCC(Nc2ncc3ncnc(Nc4cccc(Br)c4)c3n2)CC1 (stereo not shown) (as salt: maleate) [Example 6(4), 4-[(3-bromophenyl)amino]-6-({1-[1,2-bis(methoxycarbonyl)ethyl]piperidin-4-yl}amino)pyrimido[5,4-d]pyrimidine] | 193 °C
2 | O=C(O)CCN1CCC(Nc2ncc3ncnc(Nc4ccc(F)c(Cl)c4)c3n2)CC1 [Example 1(1), 4-[(3-chloro-4-fluorophenyl)amino]-6-{[1-(2-carboxyethyl)piperidin-4-yl]amino}pyrimido[5,4-d]pyrimidine] | 217 to 225 °C
3 | CC(C)OC(=O)CN1CCC(Nc2ncc3ncnc(Nc4ccc(F)c(Cl)c4)c3n2)CC1 [Example 2(3), 4-[(3-chloro-4-fluorophenyl)amino]-6-({1-[(isopropyloxycarbonyl)methyl]piperidin-4-yl}amino)pyrimido[5,4-d]pyrimidine] | 175 to 177 °C
4 | COC(=O)CCN1CCC(Nc2ncc3ncnc(Nc4ccc(F)c(Cl)c4)c3n2)CC1 [Example 2(5), 4-[(3-chloro-4-fluorophenyl)amino]-6-({1-[2-(methoxycarbonyl)ethyl]piperidin-4-yl}amino)pyrimido[5,4-d]pyrimidine] | 136 to 137 °C
5 | COC(=O)CCNC1(C)CCN(c2ncc3ncnc(Nc4ccc(F)c(Cl)c4)c3n2)CC1 [Example 6(3), 4-[(3-chloro-4-fluorophenyl)amino]-6-{4-methyl-4-[2-(methoxycarbonyl)ethyl]aminopiperidin-1-yl}pyrimido[5,4-d]pyrimidine] | 134 to 135 °C
6 | O=C(O)CN1CCN(CCNc2ncc3ncnc(Nc4ccc(F)c(Cl)c4)c3n2)CC1 [Example 1(13), 4-[(3-chloro-4-fluorophenyl)amino]-6-{2-[4-(carboxymethyl)piperazin-1-yl]ethylamino}pyrimido[5,4-d]pyrimidine] | 240 to 242 °C (dec.)
7 | O=C(O)CCN(CCC(=O)O)CC1CCN(c2ncc3ncnc(Nc4ccc(F)c(Cl)c4)c3n2)CC1 [Example 1(19), 4-[(3-chloro-4-fluorophenyl)amino]-6-(4-{[N,N-bis(2-carboxyethyl)amino]methyl}piperidin-1-yl)pyrimido[5,4-d]pyrimidine] | 160 to 169 °C
8 | CC1(NCC(=O)O)CCN(c2ncc3ncnc(Nc4ccc(F)c(Cl)c4)c3n2)CC1 [Example 1(32), 4-[(3-chloro-4-fluorophenyl)amino]-6-{4-methyl-4-[(carboxymethyl)amino]piperidin-1-yl}pyrimido[5,4-d]pyrimidine] | 160 °C (dec.)
9 | O=C(O)CCCN1CCC(Nc2ncc3ncnc(Nc4ccc(F)c(Cl)c4)c3n2)CC1 [Example 1(2), 4-[(3-chloro-4-fluorophenyl)amino]-6-{[1-(3-carboxypropyl)piperidin-4-yl]amino}pyrimido[5,4-d]pyrimidine] | 145 to 165 °C
10 | O=C(O)CNCC1CCN(c2ncc3ncnc(Nc4ccc(F)c(Cl)c4)c3n2)CC1 [Example 1(17), 4-[(3-chloro-4-fluorophenyl)amino]-6-(4-{[(carboxymethyl)amino]methyl}piperidin-1-yl)pyrimido[5,4-d]pyrimidine] | 226 to 235 °C
11 | COC(=O)CCCN1CCC(Nc2ncc3ncnc(Nc4ccc(F)c(Cl)c4)c3n2)CC1 [Example 2(6), 4-[(3-chloro-4-fluorophenyl)amino]-6-({1-[3-(methoxycarbonyl)propyl]piperidin-4-yl}amino)pyrimido[5,4-d]pyrimidine] | 135 to 137 °C
12 | CN(CCCC(=O)O)[C@H]1CC[C@H](Nc2ncc3ncnc(Nc4ccc(F)c(Cl)c4)c3n2)CC1 [Example 1(5), 4-[(3-chloro-4-fluorophenyl)amino]-6-({trans-4-[N-(3-carboxypropyl)-N-methylamino]cyclohex-1-yl}amino)pyrimido[5,4-d]pyrimidine] | 217 to 221 °C
13 | COC(=O)CCN(C)[C@H]1CC[C@H](Nc2ncc3ncnc(Nc4ccc(F)c(Cl)c4)c3n2)CC1 [Example 2(8), 4-[(3-chloro-4-fluorophenyl)amino]-6-[(trans-4-{N-[2-(methoxycarbonyl)ethyl]-N-methylamino}cyclohex-1-yl)amino]pyrimido[5,4-d]pyrimidine] | 126 to 128 °C
14 | O=C(O)CCN1CCN(c2ncc3ncnc(Nc4ccc(F)c(Cl)c4)c3n2)CC1 [Example 1(7), 4-[(3-chloro-4-fluorophenyl)amino]-6-[4-(2-carboxyethyl)piperazin-1-yl]pyrimido[5,4-d]pyrimidine] | 111 to 145 °C
15 | COC(=O)C1CCCN1CC1CCN(c2ncc3ncnc(Nc4ccc(F)c(Cl)c4)c3n2)CC1 (stereo not shown) [Example 2(21), 4-[(3-chloro-4-fluorophenyl)amino]-6-(4-{[2-(methoxycarbonyl)pyrrolidin 1-yl]methyl}piperidin-1-yl)pyrimido[5,4-d]pyrimidine] | 151 to 154 °C
16 | COC(=O)CCN1CCN(c2ncc3ncnc(Nc4ccc(F)c(Cl)c4)c3n2)CC1 [Example 2(11), 4-[(3-chloro-4-fluorophenyl)amino]-6-[4-[2-(methoxycarbonyl)ethyl]piperazin-1-yl]pyrimido[5,4-d]pyrimidine] | 140 to 142 °C
17 | O=C(CN1CCC(Nc2ncc3ncnc(Nc4ccc(F)c(Cl)c4)c3n2)CC1)OC1CCCCC1 [Example 2(4), 4-[(3-chloro-4-fluorophenyl)amino]-6-({1-[(cyclohexyloxycarbonyl)methyl]piperidin-4-yl}amino)pyrimido[5,4-d]pyrimidine] | 184 to 186 °C
18 | O=C(O)CN[C@H]1CC[C@H](Nc2ncc3ncnc(Nc4ccc(F)c(Cl)c4)c3n2)CC1 [Example 1(27), 4-[(3-chloro-4-fluorophenyl)amino]-6-({trans-4-[(carboxymethyl)amino]cyclohex-1-yl}amino)pyrimido [5,4-d]pyrimidine] | 201 to 205 °C (dec.)
19 | CCOC(=O)CN1CCN(CC2CCN(c3ncc4ncnc(Nc5ccc(F)c(Cl)c5)c4n3)CC2)CC1 [Example 2(22), 4-[(3-chloro-4-fluorophenyl)amino]-6-[4-({4-[(ethoxycarbonyl)methyl]piperazin-1-yl}methyl)piperidin-1-yl]pyrimido[5,4-d]pyrimidine] | 145 to 149 °C
20 | CCOC(=O)CC(CC(=O)OCC)N1CCC(Nc2ncc3ncnc(Nc4cccc(Br)c4)c3n2)CC1 [Example 6(5), 4-[(3-bromophenyl)amino]-6-[(1-{1-[(ethoxycarbonyl)methyl]-2-(ethoxycarbonyl)ethyl}piperidin-4-yl)amino]pyrimido-[5,4-d]pyrimidine] | 132 °C
21 | COC(=O)CCCN(C)[C@H]1CC[C@H](Nc2ncc3ncnc(Nc4ccc(F)c(Cl)c4)c3n2)CC1 [Example 2(9), 4-[(3-chloro-4-fluorophenyl)amino]-6-[(trans-4-{N-[3-(methoxycarbonyl)propyl]-N-methylamino}cyclohex-1-yl)amino]pyrimido[5,4-d]pyrimidine] | 99 to 102 °C
22 | COC(=O)CCC1CCN(C2CCN(c3ncc4ncnc(Nc5ccc(F)c(Cl)c5)c4n3)C2)CC1 (stereo not shown) [Example 2(16), 4-[(3-chloro-4-fluorophenyl)amino]-6-(3-{4-[2-(methoxycarbonyl)ethyl]piperidin-1-yl}-pyrrolidin-1-yl)pyrimido[5,4-d]pyrimidine] | 166 to 168 °C
23 | CCOC(=O)CN1CCC(Nc2ncc3ncnc(Nc4ccc(F)c(Cl)c4)c3n2)CC1 [Example 2, 4-[(3-chloro-4-fluorophenyl)amino]-6-({1-[(ethoxycarbonyl)methyl]piperidin-4-yl}amino)pyrimido[5,4-d]pyrimidine] | 136 to 138 °C
24 | CC1(NCCC(=O)O)CCN(c2ncc3ncnc(Nc4ccc(F)c(Cl)c4)c3n2)CC1 [Example 1(30), 4-[(3-chloro-4-fluorophenyl)amino]-6-{4-methyl-4-[(2-carboxyethyl)amino]piperidin-1-yl}pyrimido[5,4-d]pyrimidine] | 157 to 160 °C
25 | O=C(O)CCNCC1CCN(c2ncc3ncnc(Nc4ccc(F)c(Cl)c4)c3n2)CC1 [Example 1(16), 4-[(3-chloro-4-fluorophenyl)amino]-6-(4-{[(2-carboxyethyl)amino]methyl}piperidin1-yl)pyrimido[5,4-d]pyrimidine] | 209 to 214 °C
26 | O=C(O)CN(CC(=O)O)[C@H]1CC[C@H](Nc2ncc3ncnc(Nc4ccc(F)c(Cl)c4)c3n2)CC1 [Example 1(18), 4-[(3-chloro-4-fluorophenyl)amino]-6-({trans-4-[N,N-bis(carboxymethyl)amino]cyclohex-1-yl}amino)pyrimido[5,4-d]pyrimidine] | 245 °C (dec.)
27 | CCCOC(=O)CN1CCC(Nc2ncc3ncnc(Nc4ccc(F)c(Cl)c4)c3n2)CC1 [Example 2(2), 4-[(3-chloro-4-fluorophenyl)amino]-6-({1-[(propyloxycarbonyl)methyl]piperidin-4-yl}amino)pyrimido[5,4-d]pyrimidine] | 135 to 137 °C
28 | NC1(C(=O)O)CCN(c2ncc3ncnc(Nc4ccc(F)c(Cl)c4)c3n2)CC1 [Example 1(14), 4-[(3-chloro-4-fluorophenyl)amino]-6-(4-amino-4-carboxypiperidin-1-yl)pyrimido[5,4-d]pyrimidine] | 277 to 282 °C
